Patent US4965280A, “Antifungal carbinols” (E. I. Du Pont de Nemours and Company, priority 1989, dated 1990)

Key:
COKER COTTON = test: Test F; format: in vivo, Gossypium hirsutum
Description: (§1) Weed species were planted 3 or 4 per 15-cm diameter pot in Sassafras sandy loam (pH 6.8; 1% OM). Cotton was planted separately in the same sized pot. Postemergence plantings were made 12-16 days prior to treating so plants were in the 2- to 3-leaf stage (5-12 cm tall). Preemergence plantings were made the day before treating. Compounds were sprayed in a suitable non-phytotoxic solvent at 374 l/ha, then after 3 weeks of growth in a greenhouse, plant responses were visually rated on a percent scale where 0=no injury and 100=plant death.

REDROOT PIGWEED = test: Test F; format: in vivo, Amaranthus retroflexus
Description: as §1

LAMBSQUARTER = test: Test F; format: in vivo, Chenopodium album
Description: as §1

VELVETLEAF = test: Test F; format: in vivo, Abutilon theophrasti
Description: as §1

PRICKLY SIDA = test: Test F; format: in vivo, Sida spinosa
Description: as §1

SICKLEPOD = test: Test F; format: in vivo, Cassia obtusifolia
Description: as §1

COCKLEBUR = test: Test F; format: in vivo, Xanthium pensylvanicum
Description: as §1

CMN PURSLANE = test: Test F; format: in vivo, Portulaca oleracea
Description: as §1

IVY MORNINGGLORY = test: Test F; format: in vivo, Ipomoea hederacea
Description: as §1

GOOSEGRASS = test: Test F; format: in vivo, Eleusine indica
Description: as §1

JOHNSONGRASS = test: Test F; format: in vivo, Sorghum halepense
Description: as §1

FALL PANICUM = test: Test F; format: in vivo, Panicum dichotomiflorum
Description: as §1

LARGE CRABGRASS = test: Test F; format: in vivo, Digitaria sanguinalis
Description: as §1

BRDLF SNGLGRASS = test: Test F; format: in vivo, Brachiaria platyphylla
Description: as §1

PURPLE NUTSEDGE = test: Test F; format: in vivo, Cyperus rotundus
Description: as §1

LADY SMARTWEED = test: Test F; format: in vivo, Polygonum persicaria
Description: as §1

GROUND CHERRY = test: Test F; format: in vivo, Physalis heterophylla
Description: as §1

RICE JAP TOL = test: Test C rice paddy; format: in vivo, Japonica rice; settings: 21 days
How it was run: (§2)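 In this flooded-paddy assay, rice and weeds grew in saturated silt loam under greenhouse conditions, and the test compound was dosed into the 3 cm standing water shortly after flooding.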

RICE INDICA TOL = test: Test C rice paddy; format: in vivo; settings: 21 days
How it was run: as §2

C=C(c1ccc(F)cc1)C(O)(Cn1cncn1)c1ccc(F)cc1F (stereo not drawn) [Example 4, 2-(2,4-Difluorophenyl)-3-(4-fluorophenyl)-1-(1H-1,2,4-triazol-1-yl)-3-buten-2-ol]
plant response (COKER COTTON; PREEMERGENCE 0032 GM/HA): 0% | plant response (COKER COTTON; PREEMERGENCE 0064 GM/HA): 0% | plant response (COKER COTTON; PREEMERGENCE 0125 GM/HA): 0% | plant response (COKER COTTON; PREEMERGENCE 0250 GM/HA): 0% | plant response (COKER COTTON; PREEMERGENCE 0500 GM/HA): 0% | plant response (REDROOT PIGWEED; PREEMERGENCE 0032 GM/HA): 50% | plant response (REDROOT PIGWEED; PREEMERGENCE 0064 GM/HA): 70% | plant response (REDROOT PIGWEED; PREEMERGENCE 0125 GM/HA): 60% | plant response (REDROOT PIGWEED; PREEMERGENCE 0250 GM/HA): 100% | plant response (REDROOT PIGWEED; PREEMERGENCE 0500 GM/HA): 100% | plant response (LAMBSQUARTER; PREEMERGENCE 0032 GM/HA): 0% | plant response (LAMBSQUARTER; PREEMERGENCE 0064 GM/HA): 20% | plant response (LAMBSQUARTER; PREEMERGENCE 0125 GM/HA): 20% | plant response (LAMBSQUARTER; PREEMERGENCE 0250 GM/HA): 60% | plant response (LAMBSQUARTER; PREEMERGENCE 0500 GM/HA): 70% | plant response (VELVETLEAF; PREEMERGENCE 0032 GM/HA): 0% | plant response (VELVETLEAF; PREEMERGENCE 0064 GM/HA): 0% | plant response (VELVETLEAF; PREEMERGENCE 0125 GM/HA): 0% | plant response (VELVETLEAF; PREEMERGENCE 0250 GM/HA): 0% | plant response (VELVETLEAF; PREEMERGENCE 0500 GM/HA): 30% | plant response (PRICKLY SIDA; PREEMERGENCE 0032 GM/HA): 0% | plant response (PRICKLY SIDA; PREEMERGENCE 0064 GM/HA): 0% | plant response (PRICKLY SIDA; PREEMERGENCE 0125 GM/HA): 0% | plant response (PRICKLY SIDA; PREEMERGENCE 0250 GM/HA): 100% | plant response (PRICKLY SIDA; PREEMERGENCE 0500 GM/HA): 90% | plant response (SICKLEPOD; PREEMERGENCE 0032 GM/HA): 0% | plant response (SICKLEPOD; PREEMERGENCE 0064 GM/HA): 0% | plant response (SICKLEPOD; PREEMERGENCE 0125 GM/HA): 0% | plant response (SICKLEPOD; PREEMERGENCE 0250 GM/HA): 0% | plant response (SICKLEPOD; PREEMERGENCE 0500 GM/HA): 0% | plant response (COCKLEBUR; PREEMERGENCE 0032 GM/HA): 0% | plant response (COCKLEBUR; PREEMERGENCE 0064 GM/HA): 0% | plant response (COCKLEBUR; PREEMERGENCE 0125 GM/HA): 0% | plant response (COCKLEBUR; PREEMERGENCE 0250 GM/HA): 0% | plant response (COCKLEBUR; PREEMERGENCE 0500 GM/HA): 0% | plant response (CMN PURSLANE; PREEMERGENCE 0032 GM/HA): 0% | plant response (CMN PURSLANE; PREEMERGENCE 0064 GM/HA): 20% | plant response (CMN PURSLANE; PREEMERGENCE 0125 GM/HA): 30% | plant response (CMN PURSLANE; PREEMERGENCE 0250 GM/HA): 30% | plant response (CMN PURSLANE; PREEMERGENCE 0500 GM/HA): 80% | plant response (IVY MORNINGGLORY; PREEMERGENCE 0032 GM/HA): 0% | plant response (IVY MORNINGGLORY; PREEMERGENCE 0064 GM/HA): 0% | plant response (IVY MORNINGGLORY; PREEMERGENCE 0125 GM/HA): 0% | plant response (IVY MORNINGGLORY; PREEMERGENCE 0250 GM/HA): 0% | plant response (IVY MORNINGGLORY; PREEMERGENCE 0500 GM/HA): 0% | plant response (GOOSEGRASS; PREEMERGENCE 0032 GM/HA): 80% | plant response (GOOSEGRASS; PREEMERGENCE 0064 GM/HA): 80% | plant response (GOOSEGRASS; PREEMERGENCE 0125 GM/HA): 100% | plant response (GOOSEGRASS; PREEMERGENCE 0250 GM/HA): 100% | plant response (GOOSEGRASS; PREEMERGENCE 0500 GM/HA): 100% | plant response (JOHNSONGRASS; PREEMERGENCE 0032 GM/HA): 0% | plant response (JOHNSONGRASS; PREEMERGENCE 0064 GM/HA): 0% | plant response (JOHNSONGRASS; PREEMERGENCE 0125 GM/HA): 20% | plant response (JOHNSONGRASS; PREEMERGENCE 0250 GM/HA): 50% | plant response (JOHNSONGRASS; PREEMERGENCE 0500 GM/HA): 50% | plant response (FALL PANICUM; PREEMERGENCE 0032 GM/HA): 90% | plant response (FALL PANICUM; PREEMERGENCE 0064 GM/HA): 90% | plant response (FALL PANICUM; PREEMERGENCE 0125 GM/HA): 90% | plant response (FALL PANICUM; PREEMERGENCE 0250 GM/HA): 100% | plant response (FALL PANICUM; PREEMERGENCE 0500 GM/HA): 100% | plant response (LARGE CRABGRASS; PREEMERGENCE 0032 GM/HA): 0% | plant response (LARGE CRABGRASS; PREEMERGENCE 0064 GM/HA): 20% | plant response (LARGE CRABGRASS; PREEMERGENCE 0125 GM/HA): 100% | plant response (LARGE CRABGRASS; PREEMERGENCE 0250 GM/HA): 100% | plant response (LARGE CRABGRASS; PREEMERGENCE 0500 GM/HA): 100% | plant response (BRDLF SNGLGRASS; PREEMERGENCE 0032 GM/HA): 0% | plant response (BRDLF SNGLGRASS; PREEMERGENCE 0064 GM/HA): 0% | plant response (BRDLF SNGLGRASS; PREEMERGENCE 0125 GM/HA): 0% | plant response (BRDLF SNGLGRASS; PREEMERGENCE 0250 GM/HA): 0% | plant response (BRDLF SNGLGRASS; PREEMERGENCE 0500 GM/HA): 30% | plant response (PURPLE NUTSEDGE; PREEMERGENCE 0032 GM/HA): 0% | plant response (PURPLE NUTSEDGE; PREEMERGENCE 0064 GM/HA): 0% | plant response (PURPLE NUTSEDGE; PREEMERGENCE 0125 GM/HA): 0% | plant response (PURPLE NUTSEDGE; PREEMERGENCE 0250 GM/HA): 0% | plant response (PURPLE NUTSEDGE; PREEMERGENCE 0500 GM/HA): 0% | plant response (LADY SMARTWEED; PREEMERGENCE 0032 GM/HA): 0% | plant response (LADY SMARTWEED; PREEMERGENCE 0064 GM/HA): 0% | plant response (LADY SMARTWEED; PREEMERGENCE 0125 GM/HA): 0% | plant response (LADY SMARTWEED; PREEMERGENCE 0250 GM/HA): 20% | plant response (LADY SMARTWEED; PREEMERGENCE 0500 GM/HA): 20% | plant response (GROUND CHERRY; PREEMERGENCE 0032 GM/HA): 0% | plant response (GROUND CHERRY; PREEMERGENCE 0064 GM/HA): 0% | plant response (GROUND CHERRY; PREEMERGENCE 0125 GM/HA): 0% | plant response (GROUND CHERRY; PREEMERGENCE 0250 GM/HA): 0% | plant response (GROUND CHERRY; PREEMERGENCE 0500 GM/HA): 0%

C=C(c1ccccc1Cl)C(O)(Cn1cncn1)c1ccc(F)cc1F (stereo not drawn) [Example 35]
plant response (RICE JAP TOL; 0032 G/HA): 0 | plant response (RICE JAP TOL; 0125 G/HA): 20 | plant response (RICE JAP TOL; 0500 G/HA): 50 | plant response (RICE JAP TOL; 2000 G/HA): 50 | plant response (RICE INDICA TOL; 0032 G/HA): 0 | plant response (RICE INDICA TOL; 0125 G/HA): 55 | plant response (RICE INDICA TOL; 0500 G/HA): 55 | plant response (RICE INDICA TOL; 2000 G/HA): 60
